Data taken from publication PMC7321560 (2020).

How the values were obtained:
[1] = test system: split dopamine aptamer (aptamer1 + aptamer2) (DNA, aptamer) TTCGCAGGTGTGGAGTGACGTCG/CGACGCCAGTTTGAAGGTTCG; assay: organic electrochemical transistor gate potential shift; conditions: 10 mM Tris; 0.5 μM aptamer2; highest concentration 10 μM; shift under 15 mV or reversed
[2] = test system: split dopamine aptamer (aptamer1 + aptamer2) (DNA, aptamer) TTCGCAGGTGTGGAGTGACGTCG/CGACGCCAGTTTGAAGGTTCG; assay: square wave voltammetry (amperometric aptasensor); conditions: 10 mM Tris; 0.5 μM aptamer2; highest concentration 50 μM
[3] = test system: split dopamine aptamer (aptamer1 + aptamer2) (DNA, aptamer) TTCGCAGGTGTGGAGTGACGTCG/CGACGCCAGTTTGAAGGTTCG; assay: organic electrochemical transistor gate potential shift, Langmuir fit; conditions: 10 mM Tris; 0.5 μM aptamer2; aptamer1 on gold gate; apparent (transducer-dependent)
[4] = test system: split dopamine aptamer (aptamer1 + aptamer2) (DNA, aptamer) TTCGCAGGTGTGGAGTGACGTCG/CGACGCCAGTTTGAAGGTTCG; assay: square wave voltammetry, Langmuir fit (amperometric aptasensor); conditions: 10 mM Tris; 0.5 μM aptamer2; aptamer1 on gold; apparent (transducer-dependent)

binding [1] | binding [2] | KD [3] [nM] | KD [4] [nM] | Compound
no | no | – | – | NCCCC(=O)O
– | – | 0.007 | 5000 | NCCc1ccc(O)c(O)c1

More lines, now with the values behind:

Compound | binding [1] | binding [2] | KD [3] [nM] | KD [4] [nM]
N[C@@H](CCC(=O)O)C(=O)O | no | no | – | –
O=C1O[C@H]([C@@H](O)CO)C(O)=C1O | no | no | – | –
O=c1[nH]c(=O)c2[nH]c(=O)[nH]c2[nH]1 | no | no | – | –
